From paper PMC10112521, “High-throughput AR dimerization assay identifies androgen disrupting chemicals and metabolites” (Frontiers in Toxicology, 2023)
Read-outs that look alike come from different tables or passages of the source.

What was measured:
[1] = biological target: T1, human AR (Homo sapiens, UniProt P10275); assay: AR2 assay, antagonist mode: disruption of R1881 (10 nM)-induced AR homodimerization in HepG2-AR2 cells; format: cell-based; details: for AR2 antagonist: activity call, antagonist mode, 18 h
T1 sequence (P10275 1-920) 1: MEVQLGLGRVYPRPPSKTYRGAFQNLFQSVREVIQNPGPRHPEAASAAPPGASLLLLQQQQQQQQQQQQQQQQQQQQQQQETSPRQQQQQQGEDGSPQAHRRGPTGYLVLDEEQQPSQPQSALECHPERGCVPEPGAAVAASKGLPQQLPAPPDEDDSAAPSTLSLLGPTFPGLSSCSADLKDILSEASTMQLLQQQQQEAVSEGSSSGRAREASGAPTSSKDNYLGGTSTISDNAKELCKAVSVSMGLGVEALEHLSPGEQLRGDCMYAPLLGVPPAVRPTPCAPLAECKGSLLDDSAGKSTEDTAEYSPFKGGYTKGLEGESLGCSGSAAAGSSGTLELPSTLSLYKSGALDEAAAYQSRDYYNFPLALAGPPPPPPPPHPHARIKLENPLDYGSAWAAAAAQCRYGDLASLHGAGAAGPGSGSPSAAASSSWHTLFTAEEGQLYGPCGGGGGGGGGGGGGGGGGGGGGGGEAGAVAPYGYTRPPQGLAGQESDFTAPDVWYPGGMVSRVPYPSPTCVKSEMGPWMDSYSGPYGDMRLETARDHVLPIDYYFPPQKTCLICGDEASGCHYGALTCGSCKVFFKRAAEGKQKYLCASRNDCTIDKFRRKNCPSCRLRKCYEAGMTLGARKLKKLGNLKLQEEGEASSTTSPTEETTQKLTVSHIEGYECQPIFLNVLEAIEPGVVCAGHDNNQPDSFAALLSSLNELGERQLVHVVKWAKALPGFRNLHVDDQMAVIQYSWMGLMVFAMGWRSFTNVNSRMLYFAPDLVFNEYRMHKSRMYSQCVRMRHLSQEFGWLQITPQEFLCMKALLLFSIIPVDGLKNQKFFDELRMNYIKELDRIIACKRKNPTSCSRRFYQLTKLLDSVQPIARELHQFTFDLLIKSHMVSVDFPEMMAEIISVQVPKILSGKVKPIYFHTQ
T1 sequence (P10275 1-920) 2: T1 sequence (P10275 1-920) 1

[2] = test system: AR; design: method as in Kleinstreuer et al., 2017; details: cited from earlier work; for Antagonist reference: AR antagonist reference class ref Kleinstreuer et al.
[3] = test system: AR2 cells (HepG2-AR2); assay: Alamar Blue (resazurin) post hoc cell viability / cytotoxicity assay in AR2 cells
Method: (§1) For antagonist mode and cytotoxicity data, well-level normalized response (resp) was calculated as: resp=100 * RLU−bval/pval−bval where pval is the median RLU value of the MEC positive control wells (minimum four wells).

[4] = biological target: T1, human AR; assay: AR2 assay, agonist mode: ligand-dependent AR homodimerization (NanoBiT luciferase complementation) in stable HepG2-AR2 cells; format: cell-based; details: for hill_tp: Hill model top (efficacy); for max_med: maximum median response; for win_model: winning concentration-response model (Constant, Hill, Gain-Loss); for AR2 agonist: activity call, agonist mode;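 as to hill tp: Log2 fold change of luminescence over DMSO vehicle wells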;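 as to max med: Log2 fold change of luminescence over DMSO vehicle wells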
[5] = test system: human AR (LBD and AF2 domains) and the RID of human SRC2; design: method as in U.S. EPA, 2002b; details: activity call, antagonist mode, 2 h; invitroDBv3.4 ref U.S. EPA, 2002b; cited from earlier work
[6] = test system: full-length human AR and the receptor interacting domain (RID) of SRC1; design: method as in U.S. EPA, 2002b; details: cited from earlier work
[7] = biological target: T1, human AR; assay: cell-based; design: species or system AR2 cells (HepG2-AR2); NanoLuc complementation AR homodimerization, antagonist mode, loss of agonist-induced luminescence, AC50 by Hill fit; details: antagonist mode, 10 nM agonist stimulus, 18 h, no CYP expressed
[8] = test system: human AR (LBD and AF2 domains) and the RID of human SRC2; design: method as in U.S. EPA, 2002b; details: activity call, agonist mode, 2 h; invitroDBv3.4 ref U.S. EPA, 2002b; cited from earlier work
[9] = test system: AR2 cells (HepG2-AR2)
Method: as §1

[10] = spid AR_antagonist, sheet antagonist_fits
[11] = spid AR_antagonist, sheet antagonist_fits, 0 where win_model is Constant
[12] = spid Viability, sheet antagonist_fits
[13] = spid Viability, sheet antagonist_fits, 0 where win_model is Constant
[14] = sheet agonist_fits, 0 given where win_model is Constant
[15] = activity call, 8 h, single protocol detects agonists and antagonists, invitroDBv3.4 ref U.S. EPA, 2002b
[16] = activity call, 16 h, single protocol detects agonists and antagonists, invitroDBv3.4 ref U.S. EPA, 2002b
[17] = AR agonist reference class ref Kleinstreuer et al., 2017
[18] = spid AR_antagonist, sheet antagonist_fits, Hill fit parameter

SMILES	hill_tp (Hill model top) [1]	max_med (maximum median response) [1]	win_model (winning concentration-response model) [1, 10]	hill_gw (Hill model slope) [1, 11]	Antagonist reference [2]; 2017	Antagonist reference ([2]; Supplementary Table S1, 2017)	max_med (maximum median response) [3, 12]	hill_tp (Hill model top) [3, 13]	hill_tp [4, 14]	max_med ([4]; sheet agonist_fits)	win_model ([4]; sheet agonist_fits)	UPitt antagonist [5]	OT 8 hr [6, 15]	OT 16 hr [6, 16]	AC50 ([7]; hill_ga, spid=Bgal)	AC50 ([7]; hill_ga, spid=No_RNA)	UPitt agonist [8]	Agonist reference [2, 17]	hill_ga (Hill model log AC50) [9]	AR2 agonist ([4]; 18 h)	also measured
CCCC1COC(Cn2cncn2)(c2ccc(Cl)cc2Cl)O1 (stereo not shown) [Propiconazole]	116.132	96.3637	Hill	1.532	Weak	Weak	5.206	0	0	0.05395	Constant	1	1	1	33.8 µM	32.2 µM	–	–	–	–	AR2 antagonist [1]: 1
COC(=O)Nc1nc2ccccc2[nH]1 [Carbendazim]	18.0536	16.7598	Hill	8	–	–	17.1488	11.742	0	0.02367	Constant	–	0	1	–	–	0	Inactive	1.227	0	–
CC#C[C@]1(O)CC[C@H]2[C@@H]3CCC4=CC(=O)CCC4=C3[C@@H](c3ccc(N(C)C)cc3)C[C@@]21C [Mifepristone]	–	–	–	–	Strong	Strong	9.555	0	–	–	–	1	1	1	–	–	–	–	–	–	–
CCCCNC(=O)n1c(NC(=O)OC)nc2ccccc21 [Benomyl]	30.7847	31.5571	Hill	3.063	–	–	28.9418	26.9649	0	0.04446	Constant	–	0	1	–	–	0	Inactive	0.6267	0	–
C[C@H]1CCCC(=O)CCC/C=C/c2cc(O)cc(O)c2C(=O)O1 [Zearalenone]	–	–	–	–	Weak	Weak	41.4682	–	0	0.2969	Constant	1	0	0	9.73 µM	7.46 µM	–	–	–	–	AR2 antagonist [1]: 1; max_med (maximum median response) [1, 10]: 103.904; win_model (winning curve-fit model) ([1]; spid AR_antagonist, sheet antagonist_fits, Constant = no concentration response): Hill; hill_gw (Hill model slope/Hill coefficient) [1, 18]: 2.042; hill_tp (Hill model top of curve) [1, 18]: 105.112; hill_tp (Hill model top of curve) ([3]; spid Viability, sheet antagonist_fits, Hill fit parameter): 49.8014
CC(O)(CS(=O)(=O)c1ccc(F)cc1)C(=O)Nc1ccc(C#N)c(C(F)(F)F)c1 (stereo not shown) [Bicalutamide]	–	–	–	–	Strong	Strong	19.8696	21.5759	–	–	–	1	1	1	–	–	–	–	–	–	hill_tp (Hill model top) ([3]; spid Viability, sheet antagonist_fits, 0 where win_model is Constant, listed as BICAL): 57.2356; max_med (maximum median response) ([3]; spid Viability, sheet antagonist_fits, listed as BICAL): 25.4903
CC(C)=CC1C(C(=O)OCN2C(=O)C3=C(CCCC3)C2=O)C1(C)C (stereo not shown) [Tetramethrin]	–	–	Hill	3.974	–	–	11.4832	20.7059	0.4941	0.4102	Hill	–	1	1	–	–	0	Inactive	–	0	max_med (maximum median response) [1, 10]: 7.623; hill_tp (Hill model top) [1, 11]: 4.695; activity call in agonist mode ([4]; 128-chemical evaluation, 18 h, active = maximal median response >5*bmad): inactive; hill_gw ([4]; sheet agonist_fits, Hill model gain slope (Hill coefficient), 0 given where win_model is Constant): 4.525; AC50 ([7]; spid=Bgal, read-out: hill_ga (converted)): 43.1 µM
C[C@]12CCC(=O)C[C@@H]1CC[C@@H]1[C@@H]2CC[C@]2(C)[C@@H](O)CC[C@@H]12 [5alpha-Dihydrotestosterone]	–	–	–	–	–	–	–	–	–	–	–	–	–	–	–	–	0	–	1.263	–	Agonist reference [2]: Moderate; hill_tp (Hill model top) [3]: 25.0955; max_med (maximum median response) [3]: 25.6282; OT 8 hr [6]: 1; OT 16 hr [6]: 1
CC1(C)C(C=C(Cl)Cl)C1C(=O)OCc1cccc(Oc2ccccc2)c1 (stereo not shown) [Permethrin]	63.3496	53.132	Hill	1.786	–	–	5.481	0	0	0.006626	Constant	–	0	0	27.5 µM	47.3 µM	0	Inactive	0	0	–
